Data taken from PubChem BioAssay AID330 (DTP/NCI, 2004).
Where “and” joins values, the source holds several entries; their conditions need not be identical. Equal values may be shown once. Inconclusive results and toxic doses are left out. How the source made its calls: active means survival T/C of 150% or more; inactive means T/C below 125% in these data.

Test system: P388 leukemia ip, CD2F1 mice, survival T/C
Experiment: NCI In Vivo Anticancer Drug Screen. Data for tumor model P388 Leukemia (intraperitoneal) in CD2F1 (CDF1) mice
Conditions: endpoint: median survival time, higher = longer survival
Method in brief: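 Mice carrying the transplanted tumor received test compound or vehicle. Survival was recorded in each group, and the value is the treated-group measurement divided by that of the vehicle-treated control group.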

[1] = dose: 50.0 mg/kg/injection, schedule: Q01DX005 (ip), vehicle: Klucel (hydroxypropylcellulose) (HPC)
[2] = dose: 100.0 mg/kg/injection, schedule: Q01DX005 (ip), vehicle: Klucel (hydroxypropylcellulose) (HPC)
[3] = dose: 200.0 mg/kg/injection, schedule: Q01DX005 (ip), vehicle: Klucel (hydroxypropylcellulose) (HPC)
[4] = dose: 50.0 mg/kg/injection, schedule: Q01DX009 (ip), vehicle: saline with Tween-80
[5] = dose: 100.0 mg/kg/injection, schedule: Q01DX009 (ip), vehicle: saline with Tween-80
[6] = dose: 200.0 mg/kg/injection, schedule: Q01DX009 (ip), vehicle: saline with Tween-80
[7] = dose: 100.0 mg/kg/injection, schedule: Q04DX003 (ip), vehicle: Klucel (hydroxypropylcellulose) (HPC)
[8] = dose: 200.0 mg/kg/injection, schedule: Q04DX003 (ip), vehicle: Klucel (hydroxypropylcellulose) (HPC)
[9] = dose: 400.0 mg/kg/injection, schedule: Q04DX003 (ip), vehicle: Klucel (hydroxypropylcellulose) (HPC)
[10] = dose: 50.0 mg/kg/injection, schedule: Q01DX009 (ip), vehicle: Klucel (hydroxypropylcellulose) (HPC)
[11] = dose: 100.0 mg/kg/injection, schedule: Q01DX009 (ip), vehicle: Klucel (hydroxypropylcellulose) (HPC)
[12] = dose: 200.0 mg/kg/injection, schedule: Q01DX009 (ip), vehicle: Klucel (hydroxypropylcellulose) (HPC)

Measured: T/C

O=C(O)C1CSCN1 (centres undefined)
inactive: dose: 6.25 mg/kg/injection, schedule: Q01DX009 (ip), vehicle: water 90 % of control and 96 % of control | dose: 12.5 mg/kg/injection, schedule: Q01DX009 (ip), vehicle: water 99 % of control and 96 % of control | dose: 25.0 mg/kg/injection, schedule: Q01DX009 (ip), vehicle: water 98 % of control and 99 % of control | dose: 50.0 mg/kg/injection, schedule: Q01DX009 (ip), vehicle: water 98 % of control and 95 % of control | dose: 100.0 mg/kg/injection, schedule: Q01DX009 (ip), vehicle: water 100 % of control | dose: 200.0 mg/kg/injection, schedule: Q01DX009 (ip), vehicle: water 96 % of control

CC(=Nc1ccc2c(c1)C(=O)c1ccc(N=C(C)N(C)C)cc1C2=O)N(C)C
inactive: [1] 100 % of control | [2] 109 % of control | [3] 100 % of control

Cc1nc(Nc2ccc(F)cc2)c2c(C)c(Cc3ccccc3)[nH]c2n1
inactive: [1] 88 % of control | [2] 89 % of control | [3] 94 % of control

C=CCOc1ccc(-c2ccccc2)cc1Br
inactive: [1] 108 % of control | [2] 102 % of control | [3] 100 % of control

Nc1ccc(N=Nc2ccc(S(=O)(=O)O)cc2)cc1
inactive: dose: 100.0 mg/kg/injection, schedule: Q04DX003 (ip), vehicle: saline with Tween-80 95 % of control | dose: 200.0 mg/kg/injection, schedule: Q04DX003 (ip), vehicle: saline with Tween-80 100 % of control | dose: 400.0 mg/kg/injection, schedule: Q04DX003 (ip), vehicle: saline with Tween-80 100 % of control

Cc1cccc(/C=N/Nc2ccc3ccccc3n2)n1
inactive: dose: 6.25 mg/kg/injection, schedule: Q01DX005 (ip), vehicle: Klucel (hydroxypropylcellulose) (HPC) 102 % of control | dose: 12.5 mg/kg/injection, schedule: Q01DX005 (ip), vehicle: Klucel (hydroxypropylcellulose) (HPC) 95 % of control | dose: 25.0 mg/kg/injection, schedule: Q01DX005 (ip), vehicle: Klucel (hydroxypropylcellulose) (HPC) 96 % of control

O=C(NCCN(C(=O)C(F)(F)F)c1ccc(F)cc1)C(F)(F)F
inactive: [4] 100 % of control | [5] 100 % of control | [6] 101 % of control

CCOc1ccc(C(C[N+](=O)[O-])Sc2ccccc2N)cc1 (centres undefined)
inactive: dose: 60.0 mg/kg/injection, schedule: Q01DX005 (ip), vehicle: saline with Tween-80 97 % of control | dose: 120.0 mg/kg/injection, schedule: Q01DX005 (ip), vehicle: saline with Tween-80 106 % of control | dose: 240.0 mg/kg/injection, schedule: Q01DX005 (ip), vehicle: saline with Tween-80 113 % of control

COC(=O)c1cc(NC(=O)O/N=C/c2cccnc2)cc(C(=O)OC)c1
inactive: dose: 50.0 mg/kg/injection, schedule: Q01DX009 (ip), vehicle: saline 103 % of control | dose: 100.0 mg/kg/injection, schedule: Q01DX009 (ip), vehicle: saline 91 % of control

CCOC(=O)c1c(NCCO)c(-c2ccccc2)c(=O)n2c1[nH]c1ccccc12
inactive: dose: 100.0 mg/kg/injection, schedule: Q01DX001 (ip), vehicle: saline with Tween-80 100 % of control | dose: 200.0 mg/kg/injection, schedule: Q01DX001 (ip), vehicle: saline with Tween-80 99 % of control | dose: 400.0 mg/kg/injection, schedule: Q01DX001 (ip), vehicle: saline with Tween-80 87 % of control

CCCCCC1(CCCCCCCC(=O)OCC)OCCO1
inactive: [7] 97 % of control | [8] 103 % of control | [9] 97 % of control

COCN1C(=O)CN=C(c2ccccc2)c2cc([N+](=O)[O-])ccc21
inactive: [10] 100 % of control | [11] 101 % of control | [12] 98 % of control

CCC(=O)Nc1c(O)c(Br)c(NC(=O)CC)c(O)c1Br
inactive: dose: 60.0 mg/kg/injection, schedule: Q01DX005 (ip), vehicle: saline 104 % of control | dose: 120.0 mg/kg/injection, schedule: Q01DX005 (ip), vehicle: saline 100 % of control | dose: 240.0 mg/kg/injection, schedule: Q01DX005 (ip), vehicle: saline 105 % of control

C(=Nc1ccc(N=Cc2ccccc2P(c2ccccc2)c2ccccc2)cc1)c1ccccc1P(c1ccccc1)c1ccccc1
inactive: [10] 99 % of control | [11] 99 % of control | [12] 99 % of control

C/C(=N/O)C1CCC(C2CCCC(C3CCCCC3)C2)CC1 (centres undefined)
inactive: dose: 50.0 mg/kg/injection, schedule: Q01DX005 (ip), vehicle: saline with Tween-80 94 % of control | dose: 100.0 mg/kg/injection, schedule: Q01DX005 (ip), vehicle: saline with Tween-80 94 % of control | dose: 200.0 mg/kg/injection, schedule: Q01DX005 (ip), vehicle: saline with Tween-80 93 % of control

COc1ccc(Cl)cc1NC(=O)Oc1ccncc1
inactive: dose: 0.78 mg/kg/injection, schedule: Q01DX009 (ip), vehicle: saline with Tween-80 94 % of control | dose: 1.56 mg/kg/injection, schedule: Q01DX009 (ip), vehicle: saline with Tween-80 88 % of control | dose: 3.12 mg/kg/injection, schedule: Q01DX009 (ip), vehicle: saline with Tween-80 87 % of control and 88 % of control | dose: 6.25 mg/kg/injection, schedule: Q01DX009 (ip), vehicle: saline with Tween-80 86 % of control | dose: 12.5 mg/kg/injection, schedule: Q01DX009 (ip), vehicle: saline with Tween-80 88 % of control | [4] 87 % of control | [5] 101 % of control | [6] 94 % of control

O=C1c2cccc(O)c2C(=O)c2c1cc(CO)c(-c1c(CO)cc3c(c1O)C(=O)c1c(O)cccc1C3=O)c2O
inactive: dose: 3.75 mg/kg/injection, schedule: Q01DX005 (ip), vehicle: Klucel (hydroxypropylcellulose) (HPC) 98 % of control | dose: 7.5 mg/kg/injection, schedule: Q01DX005 (ip), vehicle: Klucel (hydroxypropylcellulose) (HPC) 100 % of control | dose: 15.0 mg/kg/injection, schedule: Q01DX005 (ip), vehicle: Klucel (hydroxypropylcellulose) (HPC) 99 % of control

O=C(OCC(Cl)(Cl)Cl)N1[C@H]2C3=C(CCC3)[C@@H]([C@H]3O[C@H]32)N1C(=O)OCC(Cl)(Cl)Cl
inactive: [1] 97 % of control | [2] 97 % of control | [3] 97 % of control

O=c1c(O)cc2c(O)oc3c(=O)c(O)c(O)c4c(O)oc1c2c43
inactive: dose: 25.0 mg/kg/injection, schedule: Q01DX009 (ip), vehicle: suspension in saline 114 % of control and 97 % of control | dose: 50.0 mg/kg/injection, schedule: Q01DX009 (ip), vehicle: suspension in saline 111 % of control and 97 % of control | dose: 100.0 mg/kg/injection, schedule: Q01DX009 (ip), vehicle: suspension in saline 112 % of control and 98 % of control | dose: 200.0 mg/kg/injection, schedule: Q01DX009 (ip), vehicle: suspension in saline 103 % of control and 114 % of control

CC(C)N=Cc1ccccc1O.CC(C)N=Cc1ccccc1O.[Zn]
inactive: dose: 25.0 mg/kg/injection, schedule: Q04DX003 (ip), vehicle: saline sonified 100 % of control | dose: 50.0 mg/kg/injection, schedule: Q04DX003 (ip), vehicle: saline sonified 100 % of control | dose: 100.0 mg/kg/injection, schedule: Q04DX003 (ip), vehicle: saline sonified 104 % of control

CC(=O)C1=C(C)NC(C)=C(C(C)=O)C1c1ccccc1
inactive: [5] 100 % of control | [6] 100 % of control | dose: 400.0 mg/kg/injection, schedule: Q01DX009 (ip), vehicle: saline with Tween-80 90 % of control

Clc1ccc(CN2COc3c(ccc4cccnc34)C2)c(Cl)c1
inactive: [7] 95 % of control | [8] 104 % of control | [9] 117 % of control

FC(F)(Cl)c1nc2nc(Cl)c(Cl)nc2[nH]1
inactive: dose: 50.0 mg/kg/injection, schedule: Q01DX009 (ip), vehicle: other 100 % of control | dose: 50.0 mg/kg/injection, schedule: Q04DX003 (ip), vehicle: other 95 % of control | dose: 100.0 mg/kg/injection, schedule: Q01DX009 (ip), vehicle: other 114 % of control | dose: 100.0 mg/kg/injection, schedule: Q04DX003 (ip), vehicle: other 110 % of control | dose: 200.0 mg/kg/injection, schedule: Q04DX003 (ip), vehicle: other 105 % of control

CCCCCCCCCCCCS(=O)CC(C)O (centres undefined)
inactive: dose: 25.0 mg/kg/injection, schedule: Q01DX009 (ip), vehicle: saline + Tween-80 + alcohol 99 % of control and 101 % of control | dose: 50.0 mg/kg/injection, schedule: Q01DX009 (ip), vehicle: saline + Tween-80 + alcohol 95 % of control and 97 % of control | dose: 100.0 mg/kg/injection, schedule: Q01DX009 (ip), vehicle: saline + Tween-80 + alcohol 92 % of control and 95 % of control | dose: 200.0 mg/kg/injection, schedule: Q01DX009 (ip), vehicle: saline + Tween-80 + alcohol 99 % of control and 105 % of control | dose: 400.0 mg/kg/injection, schedule: Q01DX009 (ip), vehicle: saline + Tween-80 + alcohol 99 % of control and 107 % of control
